Data as given in patent publication US5872107A, “Treatment of urogenital cancer with boron neutron capture therapy” (Emory University, priority 1997, dated 1999).
Several values for one entry are separate records, joined by “and”; a condition that tells them apart may be missing. Equal entries are not always repeated.

Experiments:
[1] = Partition coefficient of CDU in octanol:phosphate buffer (pH 7.4); assay type: physicochemical
Description: The partition coefficient (P) of CDU was determined in octanol:phosphate buffer (pH 7.4). The octanol and aqueous phases were equilibrated by shaking together for 1 hour at 20° C. Two milliliters (2 ml) of octanol containing 0.5 mg/ml of CDU were shaken with 4 ml of buffer on a horizontal shaker for 12, hour at 25° C. Tubes were centrifuged to separate the phases and both phases were analyzed by HPLC as described below. The partition coefficient was calculated by dividing the CDU concentration in octanol by the CDU concentration in buffer. Results are reported as log P values.
The average octanol:phosphate buffer, pH 7.4, P value was determined to be 3090.

[2] = system: primary human peripheral blood mononuclear (PBM) cells; experiment: Cellular uptake and intracellular phosphorylation, PBM cells; assay type: cell-based
Source text: Carboranyl-containing nucleosides and oligonucleotides, which are lipophilic and have a high content of boron atoms, are particularly suited for use in BNCT of urogenital tumors. Preferred compounds include 5-carboranyl-2'-deoxyuridine (CDU) and 5-o-carboranyl-1-(2-deoxy-2-fluoro-β-D-arabinofuranosyl)uracil (CFAU). […] The entrapment of this molecule in cells allows for the enhancement of the tumor-to-blood ratio for BNCT. CFAU has increased glycosidic bond stability conferred by the β-fluorine group positioned on the 2'-carbon of the nucleoside.
It has been discovered that boron neutron capture therapy, optionally combined with antisense oligonucleotide therapy, can be used in the treatment of urogenital cancer, and in particular, that of the prostate, bladder, and kidney. Any boron-containing compound that is sufficiently lipophilic to pass through the appropriate urogenital membranes in a quantity high enough to achieve therapy on irradiation with low-energy neutrons can be used. Carboranyl-containing nucleosides and oligonucleotides, which are lipophilic and have a high content of boron atoms, are particularly suited for use in BNCT of urogenital cancer. Preferred compounds include 5-carboranyl-2'-deoxyuridine (CDU) and 5-o-carboranyl-1-(2-deoxy-2-fluoro-β-D-arabinofuranosyl)uracil (CFAU). […]

[3] = Pharmacokinetics of CDU in plasma after intravenous administration of 25 mg/kg to rats; assay type: in vivo, Sprague-Dawley rats
Description: 5-Carboranyl-2'-deoxyuridine (CDU) was synthesized by the method of Yamamoto, et al. The chemical purity, confirmed by ^1 H NMR spectral and high-pressure liquid chromatography (HPLC) analysis, was greater than 98%. For intravenous administration, CDU was dissolved in dimethylsulfoxide (DMSO). Internal standard, progesterone, and β-glucuronidase were purchased from Sigma Chemical Company (St. Louis, Mo.). Methanol, HPLC grade, and all other chemicals, analytical grade, were obtained from J. T. Baker (Phillipsburg, N.J.). Partition coefficients were determined one hour after administration.
Five adult male Sprague-Dawley (Harlan Laboratories, Indianapolis, Ind.) rats weighing 303±8 g (mean±SD) were used for the pharmacokinetic study. Rats were housed in a 12 hour light/12 hour dark, constant temperature (22° C.) environment with free access to standard laboratory chow and water. Animals were acclimatized to this environment for one week before the experiment. External jugular vein cannulas were implanted under ketamine:acepromazine:xylazine (50:3.3:3.3 mg/kg) anesthesia the day before the experiment. Rats were fasted overnight, however, water was available ad libitum.
On the morning of the experiment, rats were placed in individual metabolism cages. CDU […]) was administered intravenously in 0.1 ml of DMSO to the rats over a one minute period. Blood samples (0.35 ml) were collected prior to and at […], 2, 3, 4, 5, 6, 7 and 8 hour after CDU administration from the cannula into heparinized polypropylene microcentrifuge tubes. Blood volume was replaced with an equal volume of normal saline. Blood samples were immediately centrifuged at 2000 g for 5 minutes and plasma was separated and frozen at -20° C. until analysis. Urine was collected for 24 hour following CDU administration. Urine volume was measured and samples were frozen at -20° C. until analysis.
Concentrations of CDU in plasma, brain, and urine were determined by HPLC. For the determination of CDU in brain, the brain tissue was homogenized in a 1:2 (g:ml) ratio with isotonic sodium phosphate buffer, pH 7.4. To 200 μl of plasma or brain homogenate in a glass test tube, 50 μl of internal standard (20 μg/ml progesterone) and 5 ml of methylene chloride was added. Tubes were shaken for 15 minutes at low speed on a shaker, centrifuged for 5 minutes at 2000 rpm, and the plasma layer was aspirated off using a vacuum system. The remaining methylene chloride was transferred to a glass culture tube and evaporated to dryness under a stream of nitrogen gas at ambient temperature. The residue was reconstituted with 250 μl of methanol and injected onto HPLC system.
Chromatography was performed on a Hypersil ODC column (5 μm particle size, 4.6×150 mm; Alltech Associates Inc., Deerfield, Ill.) with an online guard column and an isocratic mobile phase of 65% methanol in 10 mM monobasic potassium phosphate, pH 6.3 at a flow rate of 1.5 ml/min. Compounds were detected at a UV wavelength of 274 nm with a detector range setting of 0.005 absorbance units, full scale.
The retention times of CDU and internal standard were 4.7 and 8.6 min, respectively. Sample CDU concentrations were calculated from the slope of calibration plots of the peak area ratio of CDU:internal standard versus standard CDU concentrations. The slopes and intercepts were generated using weighted (1/x^2) least-squares regression analysis. Standard curves were linear in the range of 0.1 μg/ml to 50 μg/ml. The intra- and inter-day relative standard deviations over the range of standard concentrations in all biological media were less than 10%. The extraction recoveries of CDU and progesterone were 99% and 95%, respectively.
Area/moment analysis was used to calculate pharmacokinetic parameters of CDU. […]

[4] = 25 mg/kg i.v., rats, total plasma concentrations, 25 mg/kg
[5] = 25 mg/kg i.v., individual rat, 25 mg/kg
[6] = 25 mg/kg i.v., individual rat, unbound
[7] = 25 mg/kg i.v., mean of five rats
[8] = 25 mg/kg i.v., mean of five rats, unbound

For 5-carboranyl-2'-deoxyuridine [CDU], the “lipophilicity (in words)” value [1] was “highly lipophilic”, the “log P” value [1] was 3.49 and the “intracellular phosphorylation in PBM cells (in words)” value [2] was “intracellularly phosphorylated”. For the same substance, the “uptake by PBM cells (in words)” value [2] was “taken up”, the “decline of plasma concentrations (in words)” value ([3]; 25 mg/kg i.v., rats) was “declined in a biexponential fashion” and the “volume of distribution based on unbound CDU concentrations” value ([3]; 25 mg/kg i.v., rats) was 15.5 kg⁻¹. For the same substance, the “clearance based on unbound plasma CDU concentrations (CLf)” value ([3]; 25 mg/kg i.v., rats, average) was 255.5 ± 74 mL/min/kg and 255 mL/min/kg, the terminal half-life ([3]; 25 mg/kg i.v., rats, mean±SD) was 1.26 ± 0.28 h and the “steady-state volume of distribution” value [3, 4] was 0.70 ± 0.23 kg⁻¹ and 0.7 kg⁻¹. The total clearance [3, 4] was 11.5 ± 3.3 mL/min/kg and 11.5 mL/min/kg, the “AUC, individual rats” value [3, 5] was 32.39 mg h 1^-1 and 25.14 mg h 1^-1 and 44.68 mg h 1^-1 and 42.49 mg h 1^-1 and 47.28 mg h 1^-1 and the “CLT, individual rats” value [3, 5] was 0.77 1 h^-1 kg^-1 and 0.99 1 h^-1 kg^-1 and 0.56 1 h^-1 kg^-1 and 0.59 1 h^-1 kg^-1 and 0.53 1 h^-1 kg^-1. For the same substance, the “MRT, individual rats” value [3, 5] was 1.17 h and 0.51 h and 0.81 h and 1.64 h and 1.24 h, the “V33 (steady-state volume of distribution), individual rats” value [3, 5] was 0.90 1 kg^-1 and 0.51 1 kg^-1 and 0.45 1 kg^-1 and 0.97 1 kg^-1 and 0.65 1 kg^-1 and the “t1/2, individual rats” value [3, 5] was 1.46 h and 1.20 h and 0.81 h and 1.54 h and 1.28 h. For the same substance, the “CLf, individual rats” value [3, 6] was 17.15 1 h^-1 kg^-1 and 22.33 1 h^-1 kg^-1 and 12.36 1 h^-1 kg^-1 and 13.07 1 h^-1 kg^-1 and 11.76 1 h^-1 kg^-1, the “Vss,f, individual rats” value [3, 6] was 20.02 1 kg^-1 and 11.29 1 kg^-1 and 10.09 1 kg^-1 and 21.56 1 kg^-1 and 14.53 1 kg^-1 and the “AUC, mean” value [3, 7] was 38.39 mg h 1^-1. The “MRT, mean” value [3, 7] was 1.07 h, the “V33 (steady-state volume of distribution), mean” value [3, 7] was 0.70 1 kg^-1 and the “t1/2, mean” value [3, 7] was 1.26 h. For the same substance, the “CLf, mean” value [3, 8] was 15.33 1 h^-1 kg^-1, the “Vss,f, mean” value [3, 8] was 15.50 1 kg^-1 and the “metabolic intrinsic clearance of free drug” value ([3]; estimated, unbound drug) was 333 mL/min/kg.
